Like-named read-outs stand apart in the source and are kept apart here.
Key:
rCB1 = target: T1, rCB1 (Rattus norvegicus, UniProt P20272); test: Thallium flux assay in HEK/GIRK cells expressing rCB1; format: cell-based; conditions: for rCB1 GIRK (−) 2-AG % Max ± SEM / rCB1 GIRK (+) 2-AG % Max ± SEM: % of maximal 2-AG response
T1 construct: expressed in transfected cells; host or cells: HEK293 cells stably co-expressing GIRK channels
Experimental: The cell lines used in this manuscript were generated in-house. Their preparation is described in detail in Qi et al.. Cells were used for 10 passages for experiments and day-to-day signals in both the CB2 and CB1 lines were stable across this passage number. Human Embryonic Kidney (HEK) 293 cells stably expressing rCB2 and the G protein Gqi9 were maintained in Dulbecco’s modified Eagle media (DMEM) containing 10% FBS, 1× antibiotic/antimycotic, 20 mM HEPES, 1 mM sodium pyruvate, 2 mM L-glutamine, 1× non-essential amino acids, 700 µg/mL G418 sulfate, and 0.6 µg/mL puromycin. HEK cells stably expressing rCB2 or rCB1 and the G protein inwardly rectifying potassium channel (GIRK) were maintained in DMEM/F12 containing 10% FBS, 1× antibiotic/antimycotic, 20 mM HEPES, 1 mM sodium pyruvate, 2 mM L-glutamine, 1× non-essential amino acids, 700 µg/mL G418 sulfate, and 0.6 µg/mL puromycin. Cells were monitored by periodic PCR detection using the LookOut Mycoplasma PCR Detection Kit (Sigma-Aldrich, St Louis, MO, USA) to eliminate potential mycoplasma infection. Reagents were obtained from Invitrogen (Waltham, MA, USA) unless otherwise noted.
Thallium flux assays were performed as previously described in Niswender et al., 2008 [31]. HEK/GIRK cells stably expressing rCB1 or rCB2 (15,000 cells/20 µL/well) were seeded in 384-well, poly-D-lysine coated assay plates (Corning BioCoat®) (Corning Inc., Corning, NY, USA) and incubated overnight at 37 °C in the presence of 5% CO2. The next day, the medium was removed and replaced with 20 μL of 1.2 µM thallium-sensitive dye Thallos-AM (ION biosciences, San Marcos, TX, USA), prepared as a DMSO stock solution mixed in a 1:1 ratio with 10% (w/v) pluronic acid F-127, and diluted in assay buffer (Hank’s balanced salt solution, 20 mM HEPES, pH 7.4). Following 1 h at room temperature, the dye solution was removed and replaced with 20 µL assay buffer. For screening of the FDA-Approved Drug Collection, 10 mM DMSO stocks of library compounds were transferred to daughter plates using an Echo acoustic plate reformatter (Labcyte, Sunnyvale, CA, USA) and diluted in assay buffer to a 2× final concentration. For concentration–response curve experiments, compounds were serially diluted 1:3 into 10-point concentration–response curves in DMSO, transferred to daughter plates using the Echo or Bravo Automated Liquid Handling Platform (Agilent Technologies, Santa Clara, CA, USA), and diluted in assay buffer to a 2× final concentration. Thallium flux was measured using the Hamamatsu FDSS/μCELL Kinetic Plate Imager (Bridgewater, NJ, USA). After the establishment of a fluorescence baseline (excitation, 480 ± 20 nm; emission, 540 ± 30 nm), 20 µL (2×) of test compound was added to the cells at 1 s and the response was measured. After 140 s, 10 µL (5×) of an EC20 concentration of agonist (PAM mode) or vehicle (AGO mode) in thallium stimulus buffer (125 mM NaHCO3, 1.8 mM CaSO4, 1 mM MgSO4, 5 mM glucose, 12 mM Tl2SO4, 10 mM HEPES, 0.5% BSA, pH 7.4) was added to the cells, and the response of the cells was measured for an additional 159 s (data were acquired for 300 s total at 0.5 Hz for 140 s and 1 Hz for 160 s). Raw kinetic data were analyzed in a multi-step process: (1) Fluorescence readings for each time point in a well were divided by the fluorescence reading at the initial time point to account for differences in cell number, non-uniform illumination, and dye-loading. (2) The slope value for each kinetic trace was calculated for the time window of 145–155 s, a window occurring directly after the second addition. (3) The average slope was calculated for wells containing vehicle and this value was subtracted from all wells. (4) The vehicle-subtracted slope was normalized to the relevant maximal agonist signal for each assay. […]

Human CB2 = Human CB2 (Homo sapiens, UniProt P34972); test: cAMP inhibition assay (HitHunter cAMP XS+, Eurofins) in human CB2 cells; format: cell-based; conditions: for hCB2 cAMP (−) CP55,940 % Max: absence of CP55,940; for hCB2 cAMP (−) CP55,940 % Max / hCB2 cAMP (+) CP55,940 % Max: % of maximal CP55,940 response; for hCB2 cAMP (+) CP55,940 % Max: presence of EC20 CP55,940
Experimental: Assays were performed by Eurofins Discovery (Freemont, CA, USA). cAMP Hunter cell lines were expanded from freezer stocks according to standard procedures. Human CB2 cells were seeded in a total volume of 20 μL into white-walled, 384-well microplates and incubated at 37 °C for the appropriate time prior to testing. cAMP modulation was determined using the DiscoverX HitHunter cAMP XS+ assay. For agonist determination, cells were incubated with samples in the presence of EC80 forskolin to induce a response. Media was aspirated from cells and replaced with 10 μL HBSS/10 mM HEPES. Intermediate dilution of sample stocks was performed to generate 4× sample in assay buffer, and 5 μL of 4× sample was added to cells. Then, 5 μL of 4× EC80 forskolin diluted in HBSS/HEPES was added and incubated at 37 °C for 30 min. The final assay vehicle concentration was 1%. For allosteric determination, cells were pre-incubated with the sample followed by agonist induction at the EC20 concentration. Media was aspirated from cells and replaced with 10 μL HBSS/10 mM HEPES. Intermediate dilution of sample stocks was performed to generate 4× samples in assay buffer. Then, 5 μL of 4× compound was added to the cells and incubated at room temperature or 37 °C for 5 min. Subsequently, 5 μL of 4× EC20 agonist was added to the cells and incubated at 37 °C for 30 min. EC80 forskolin was included.
After appropriate compound incubation, the assay signal was generated by incubation with 5 μL cAMP XS+ Ab reagent, followed by 20 μL cAMP XS+ ED/CL lysis cocktail for one hour at room temperature. Then, 20 μL cAMP XS+ EA reagent was added and incubated for two hours at room temperature. Microplates were read following signal generation with a PerkinElmer Envision^TM instrument for chemiluminescent signal detection.
Compound activity was analyzed using the CBIS data analysis suite (ChemInnovation, San Diego, CA, USA). For agonist mode assays, percentage activity was calculated using the following formula: % Activity = 100% × (1 − (mean RLU of test sample − mean RLU of MAX control)/(mean RLU of vehicle control − mean RLU of MAX control)).
For Gi positive allosteric mode assays, percentage modulation was calculated using the following formula: % Modulation = 100% × (1 − (mean RLU of test sample − mean RLU of MAX control)/(mean RLU of EC20 control − mean RLU of MAX control)).

[1] = hCB2 cAMP (+) CP55,940 pEC50, presence of EC20 CP55,940, EC80 forskolin
[2] = hCB2 cAMP (−) CP55,940 pEC50, absence of CP55,940, EC80 forskolin

T1 sequence (P20272 whole entry): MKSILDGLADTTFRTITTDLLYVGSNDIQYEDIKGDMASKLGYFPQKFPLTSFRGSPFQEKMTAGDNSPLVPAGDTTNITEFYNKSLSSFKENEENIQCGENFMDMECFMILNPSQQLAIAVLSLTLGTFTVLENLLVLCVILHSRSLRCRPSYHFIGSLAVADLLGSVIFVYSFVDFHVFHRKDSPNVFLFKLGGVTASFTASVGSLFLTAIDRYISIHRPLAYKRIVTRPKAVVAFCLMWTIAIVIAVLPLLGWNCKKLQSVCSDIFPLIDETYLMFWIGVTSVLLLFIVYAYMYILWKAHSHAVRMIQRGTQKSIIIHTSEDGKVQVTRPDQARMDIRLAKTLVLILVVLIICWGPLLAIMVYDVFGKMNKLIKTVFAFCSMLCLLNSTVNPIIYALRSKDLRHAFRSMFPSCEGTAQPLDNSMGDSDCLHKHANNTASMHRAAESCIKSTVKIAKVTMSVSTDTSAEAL
Sequence of Human CB2 (P34972 whole entry): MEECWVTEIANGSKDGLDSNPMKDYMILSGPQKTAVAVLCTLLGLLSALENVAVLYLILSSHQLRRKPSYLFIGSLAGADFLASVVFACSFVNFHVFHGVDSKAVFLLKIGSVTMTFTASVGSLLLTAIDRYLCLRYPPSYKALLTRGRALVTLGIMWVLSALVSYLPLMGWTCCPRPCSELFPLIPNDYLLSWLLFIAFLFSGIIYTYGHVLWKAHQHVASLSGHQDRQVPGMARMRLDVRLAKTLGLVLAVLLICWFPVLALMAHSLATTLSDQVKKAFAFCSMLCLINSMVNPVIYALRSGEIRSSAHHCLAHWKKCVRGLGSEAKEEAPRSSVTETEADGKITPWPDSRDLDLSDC

O=C(NCC1CCOCC1)c1cnc(Nc2ccc(Cl)cc2Cl)nc1C(F)(F)F [GW-842,166X, 2-(2,4-dichloroanilino)-N-(oxan-4-ylmethyl)-4-(trifluoromethyl)pyrimidine-5-carboxamide]
rCB1 GIRK (−) 2-AG pEC50 ± SEM (rCB1; absence of 2-AG): Inactive | rCB1 GIRK (+) 2-AG pEC50 ± SEM (rCB1; presence of EC20 2-AG): Inactive | hCB2 cAMP (−) CP55,940 % Max (Human CB2): 120% | EC50 (Human CB2; [1]): 5.13 µM | EC50 (Human CB2; [2]): 2.04 µM | hCB2 cAMP (+) CP55,940 % Max (Human CB2): 119%

CC1(Cc2ccccc2)COc2cc(C(=O)N3CCCCC3)ccc21 (stereo not drawn) [MDA7, 1-[(3-benzyl-3-methyl-2,3-dihydro-1-benzofuran-6-yl)carbonyl]piperidine]
rCB1 GIRK (−) 2-AG % Max ± SEM (rCB1; absence of 2-AG): 50 ± 2% | rCB1 GIRK (+) 2-AG % Max ± SEM (rCB1; presence of EC20 2-AG): 48 ± 2% | EC50 (rCB1; rCB1 GIRK EC50 in absence of 2-AG, absence of 2-AG): 0.477 µM | EC50 (rCB1; rCB1 GIRK EC50 in presence of 2-AG, presence of EC20 2-AG): 0.395 µM | hCB2 cAMP (−) CP55,940 % Max (Human CB2): 108% | EC50 (Human CB2; [1]): > 10 µM | EC50 (Human CB2; [2]): > 10 µM | hCB2 cAMP (+) CP55,940 % Max (Human CB2): 111%

COc1c(C)c2c(c(O)c1C/C=C(\C)CCC(=O)OCCN1CCOCC1)C(=O)OC2 [Mycophenolate mofetil]
rCB1 GIRK (−) 2-AG pEC50 ± SEM (rCB1; absence of 2-AG): < 5.0 | rCB1 GIRK (−) 2-AG % Max ± SEM (rCB1; absence of 2-AG): −15 ± 3% | rCB1 GIRK (+) 2-AG pEC50 ± SEM (rCB1; presence of EC20 2-AG): < 5.0 | rCB1 GIRK (+) 2-AG % Max ± SEM (rCB1; presence of EC20 2-AG): −5.5 ± 1.1% | EC50 (rCB1; presence of EC20 2-AG, read-out: rCB1 GIRK (+) 2-AG pEC50 ± SEM (converted)): > 10 µM | hCB2 cAMP (−) CP55,940 pEC50 (Human CB2; absence of CP55,940, EC80 forskolin): < 5.0 | hCB2 cAMP (−) CP55,940 % Max (Human CB2): 46% | EC50 (Human CB2; presence of EC20 CP55,940, EC80 forskolin, read-out: hCB2 cAMP (+) CP55,940 pEC50 (converted)): > 10 µM | hCB2 cAMP (+) CP55,940 % Max (Human CB2): 41%

COc1c(C)c2c(c(O)c1C/C=C(\C)CCC(=O)O)C(=O)OC2 [Mycophenolic acid]
rCB1 GIRK (+) 2-AG pEC50 ± SEM (rCB1; presence of EC20 2-AG): Inactive
